{"source": "paper PMC10987541", "about": "“Characterization of a putative orexin receptor in Ciona intestinalis sheds light on the evolution of the orexin/hypocretin system in chordates” (Scientific Reports, 2024)", "key": {"CiOX [1]": {"system": "CiOX", "type": "cell-based", "conditions": "100 µM", "experimental": "(§3) The Flp-In T-REx 293 human cell line (Thermofisher Scientific, Waltham, MA, USA), based on HEK293 cells, was cultured at 37 °C in 5% CO2 in an air‐ventilated humidified incubator according to manufacturer’s protocol, in high glucose Dulbecco’s Modified Eagle Medium (Biowest, Nuaillé, France) supplemented with 10% FBS, 1% Glutamax (Gibco), 10 mM HEPES (VWR LifeScience, Radnor, PA, USA), 100 U/mL penicillin G (Sigma Chemical Co., St. Louis, MO, USA), 80 U/mL streptomycin (Sigma), blasticidin (15 µg/mL) (InvivoGen, San Diego, CA, USA). The host cell line was maintained with zeocin (100 µg/mL) (InvitroGen, Carlsbad, CA, USA) and the transfected cell lines with hygromycin B (100 µg/mL) (InvitroGen). The experimental medium, the HEPES-buffered medium, (HBM: 137 mM NaCl, 5 mM KCl, 1.2 mM MgCl2, 0.44 mM KH2PO4, 4.2 mM NaHCO3, 1 mM CaCl2, 10 mM glucose, 20 mM HEPES, adjusted to pH 7.4 with NaOH), was used in all laboratory experiments. For the calcium elevation assay, HBM was supplemented with 1 mM probenecid [4-(dipropylsulfamoyl)benzoic acid] (Sigma) and 0.2% lipid-free bovine serum album.\n(§4) Calcium measurements were performed in triplicate or quadruplicate. […] Non-linear curve-fitting were conducted with Prism 5 (GraphPad Software Inc., La Jolla, CA, USA) using the following equation: Y=basal+responsemax-basal/1+10^logEC50-X"}, "[2]": {"system": "wild-type Flp-In T-REx 293 cells", "assay": "Calcium elevation assay in wild-type Flp-In T-REx 293 cells", "type": "cell-based, human", "conditions": "for Ca2+ elevation in wild-type cells: wild-type Flp-In T-REx 293 cells, concentration-response, N = 3", "experimental": "as §3, §4"}, "CiOX [3]": {"target": "T1, CiOX (Ciona intestinalis, UniProt F6YII5)", "T1 sequence (F6YII5 1-372)": "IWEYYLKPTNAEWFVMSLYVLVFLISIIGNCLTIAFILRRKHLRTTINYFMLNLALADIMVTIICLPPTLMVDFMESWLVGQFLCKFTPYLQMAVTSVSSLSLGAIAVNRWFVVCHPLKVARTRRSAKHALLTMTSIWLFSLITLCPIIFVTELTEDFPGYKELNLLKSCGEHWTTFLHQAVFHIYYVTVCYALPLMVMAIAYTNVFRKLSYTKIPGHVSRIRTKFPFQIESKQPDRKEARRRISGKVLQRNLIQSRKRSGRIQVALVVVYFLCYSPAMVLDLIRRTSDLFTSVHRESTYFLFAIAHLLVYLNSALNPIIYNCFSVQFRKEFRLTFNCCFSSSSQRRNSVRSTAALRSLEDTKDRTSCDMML", "type": "cell-based", "conditions": "CiOX-eGFP-expressing Flp-In T-REx 293 cells", "experimental": "as §3, §4"}, "CiOX [4]": {"system": "CiOX", "assay": "Inhibition of human orexin peptide-mediated Ca2+ responses in CiOX-expressing cells", "type": "cell-based, Ciona intestinalis", "conditions": "agonist orexin-A and -B 1 µM; inhibitor 1 µM added 30 min before; mean ± S.E.M., N = 3-4", "description": "Figure 7 The sensitivity of the human endogenous orexin peptide (1 µM) -mediated Ca^2+ responses to inhibitors (1 µM) in CiOX-expressing cells. The responses were normalized to the basal + inhibitor (0%) and the control agonist peptide response (in the absence of inhibitor; 100%) separately for each independent experiment before averaging. Data presented as mean ± S.E.M. N = 3–4. The significances are given in relation to the agonist control.\nIntracellular calcium elevation is the apparent response upon orexin receptor activation in many cell types. The calcium elevation assay was conducted as previously described. Cells, 1 × 10^5 per well, were plated on polyethyleneimine (25 μg/mL, 1 h, 37 °C)-coated black, clear-bottom, half-area 96-well plates (Greiner). After 24 h, 100 ng/mL doxycycline was added onto the cells and incubated for another 24 h before loading the cells with FLIPR Calcium 5 Assay Kit (Molecular Devices, Sunnyvale, CA, USA) dissolved in and diluted with HBM and supplemented as described above. Cells were incubated for 1 h with the loading dye, before running the assay in FlexStation 3 fluorescence plate reader (Molecular Devices). Inhibitors were added manually at the midpoint of the probe incubation (30 min). Intracellular Ca^2+ levels were measured as fluorescent changes for 150 s (of which 30 s baseline prior to stimulation) with excitation at 485 nm, emission at 525 nm (recording every 1.3 s) at 37 °C.\nThe data were normalized in each experiment to the control response and then averaged between experiments by calculation of mean ± S.E.M. The N denotes the number of independent experiments and was always at least 3. Paired two-tailed t-test was used for comparison. Significances were as follows: * P < 0.05, ** P < 0.01, *** P < 0.001."}, "[5]": {"system": "allatotropin receptor of Tribolium castaneum", "conditions": "cited from earlier work", "description": "The data presented in this study strongly support the notion that this orphan C. intestinalis receptor, here called CiOX, is an orexin-like receptor. Despite the sequence divergence, the (proposed) binding cavity of hOX2 and CiOX are highly similar."}, "CiOX [6]": {"target": "T1, CiOX", "assay": "Binding of TAMRA-orexin-A (fluorescence microscopy) in CiOX-eGFP-expressing cells", "conditions": "30 nM", "description": "(§1) We have previously observed that the N-terminus of orexin-A can tolerate additions without apparent loss of activity on orexin receptors (Kukkonen, unpublished) and it has been reported that fluorescently labelled orexin-A can be used as probe for hOX1/2[56].\n(§2) The cells were seeded on polyethyleneimine-coated 25 mm circular glass coverslips (Menzel-Gläser, Braunschweig, Germany). Twenty-four hours after seeding, cells were treated with doxycycline (100 ng/mL) and incubated for another 24 h. Then, the coverslip was washed once with HBM, before mounting in the microfluorometric experiment chamber. The imaging system, composed of the Sutter Lambda DG-4 xenon light source/filter shifter (Sutter Instrument Company, Novato, CA, USA), Nikon TE2000 epifluorescence microscope (Nikon, Tokyo, Japan), Nikon Apo TIRF 60×/1.49 oil immersion objective and Andor iXon 885 electron-multiplying charge-coupled device camera (Oxford Instruments, Abingdon, Oxfordshire, UK), was under the control of the Nikon NIS Elements AR software. Images were alternately acquired at 480/30 nm excitation/510 nm dichroic mirror/535/40 nm emission for eGFP fluorescence and at 540/25 nm excitation/565 nm dichroic mirror/605/55 nm emission for TAMRA fluorescence. A pair of images was acquired once per minute or once per every five minutes depending on the incubation time; i.e., for a longer incubation 5 min was used to avoid potential bleaching. All the additions were made by direct pipetting into the chamber. Experiments were carried out at room temperature. 30 nM TAMRA-orexin-A was used."}, "[7]": {"system": "wild-type Flp-In T-REx 293 cells", "assay": "Binding of TAMRA-orexin-A (fluorescence microscopy) in wild-type Flp-In T-REx 293 cells", "set-up": "species or system human", "conditions": "30 nM; 10-minute incubation", "description": "as §1\nas §2, with “A pair of images was acquired once per minute or once per every five minutes depending on the incubation time; i.e., for a longer incubation 5 min was used to avoid potential bleaching. All the additions were made by direct pipetting into the chamber. Experiments were carried out at room temperature. 30 nM TAMRA-orexin-A was used.” left out"}, "hOX1": {"system": "hOX1", "assay": "Binding of TAMRA-orexin-A (fluorescence microscopy) in hOX1-eGFP-expressing cells", "set-up": "species or system human", "conditions": "30 nM", "description": "as §1\nas §2, with “A pair of images was acquired once per minute or once per every five minutes depending on the incubation time; i.e., for a longer incubation 5 min was used to avoid potential bleaching. All the additions were made by direct pipetting into the chamber. Experiments were carried out at room temperature. 30 nM TAMRA-orexin-A was used.” left out"}, "[8]": {"target": "Ciona intestinalis putative orexin receptor fused to eGFP (Ciona intestinalis)"}, "[9]": {"conditions": "room temperature, red fluorescence"}}, "note": "No end group written: not given here."}
{"compound": "Nc1ncnc2c1ncn2[C@@H]1O[C@H](COP(=O)(O)OP(=O)(O)OP(=O)(O)O)[C@@H](O)[C@H]1O", "note": "[ATP]", "values": [{"measurement": "Ca2+ response to positive control in CiOX-expressing cells", "setting": "CiOX [1]", "result": "robust Ca^2+ response"}, {"measurement": "Ca2+ response to positive control in wild-type cells", "setting": "[2]; 100 µM", "result": "robust Ca^2+ response"}]}
{"compound": "COc1ccc(-c2cccc(C(=O)N(C)C)c2)cc1S(=O)(=O)Nc1cccc(NCCNC(=O)c2cccc(C)c2)c1", "note": "[Nag 26, N-[2-[3-[[5-[3-(dimethylcarbamoyl)phenyl]-2-methoxyphenyl]sulfonylamino]anilino]ethyl]-3-methylbenzamide]", "values": [{"measurement": "Ca2+ elevation in CiOX receptor-expressing cells", "setting": "CiOX [3]", "result": "induced no Ca^2+ elevation"}, {"measurement": "Ca2+ elevation in wild-type cells", "setting": "[2]", "result": "induced no Ca^2+ elevation"}]}
{"compound": "Cc1nc2ccc(NC(=O)Nc3ccnc4cccnc34)cc2o1", "note": "[SB-334867]", "values": [{"measurement": "Inhibition of Ca2+ responses to CiOX stimulation with orexin-A and -B", "setting": "CiOX [4]", "result": "much weaker effect"}]}
{"compound": "Cn1c(SCC(=O)N2CCC[C@H]2C(=O)Nc2ccccc2-c2ccccc2)nc2ccccc21", "note": "[TCS 1102, (2S)-1-[2-(1-methylbenzimidazol-2-yl)sulfanylacetyl]-N-(2-phenylphenyl)pyrrolidine-2-carboxamide]", "values": [{"measurement": "Inhibition of Ca2+ responses to CiOX stimulation with orexin-A and -B", "setting": "CiOX [4]", "result": "nearly fully blocked the response"}]}
{"compound": "CNC(=O)[C@@H](c1ccccc1)N1CCc2cc(OC)c(OC)cc2[C@@H]1CCc1ccc(C(F)(F)F)cc1", "note": "[almorexant, (2R)-2-[(1S)-6,7-dimethoxy-1-[2-[4-(trifluoromethyl)phenyl]ethyl]-3,4-dihydro-1H-isoquinolin-2-yl]-N-methyl-2-phenylacetamide]", "values": [{"measurement": "Inhibition of Ca2+ responses to CiOX stimulation with orexin-A and -B", "setting": "CiOX [4]", "result": "nearly fully blocked the response"}, {"measurement": "Inhibition of the allatotropin receptor of Tribolium castaneum", "setting": "[5]", "result": "not inhibited"}]}
{"compound": "M. sexta allatotropin: Manduca sexta allatotropin from Bachem (GFKNVEMMTARGF)", "values": [{"measurement": "Ca2+ elevation in CiOX receptor-expressing cells", "setting": "CiOX [3]", "result": "induced no Ca^2+ elevation"}, {"measurement": "Ca2+ elevation in wild-type cells", "setting": "[2]", "result": "induced no Ca^2+ elevation"}]}
{"compound": "TAMRA-orexin-A: 5-/6-carboxytetramethylrhodamine (TAMRA)-labelled human orexin-A, custom synthesis (QPLPDCCRQKTCSCRLYELLHGAGNHAAGILTL; ends and bridges not checked; also: TAMRA label, place not given here; UniProt O43612 34-66, looked up)", "values": [{"measurement": "Internalization (intracellular red fluorescence) in CiOX receptor-expressing cells", "setting": "CiOX [6]", "result": "did not observe this"}, {"measurement": "Time for which the bound fluorescence intensity remained stable in CiOX-eGFP-expressing cells", "setting": "CiOX [6]; room temperature", "result": "at least 30 min"}, {"measurement": "Binding to the plasma membranes of CiOX-eGFP-expressing cells", "setting": "CiOX [6]; [9]", "result": "bound to the plasma membranes of the CiOX receptor-expressing cells"}, {"measurement": "Binding to wild-type Flp-In T-REx 293 cells", "setting": "[7]", "result": "did not bind"}, {"measurement": "Internalization (intracellular red fluorescence) in hOX1 receptor-expressing cells", "setting": "hOX1", "result": "intracellular red fluorescence suggesting internalization"}, {"measurement": "Binding to the plasma membranes of hOX1-eGFP-expressing cells", "setting": "hOX1; [9]", "result": "bound to the plasma membranes of OX1 cells quickly after the addition"}]}
{"compound": "[(1R)-1-[(3S,6S,9S,12S,18R,21S,22R)-21-acetamido-18-benzyl-3-[(1R)-1-methoxyethyl]-4,9,10,12,16-pentamethyl-15-methylidene-2,5,8,11,14,17,20-heptaoxo-22-propan-2-yl-1,19-dioxa-4,7,10,13,16-pentazacyclodocos-6-yl]-2-methylpropyl] (2S,3R)-3-hydroxy-4-methyl-2-(propanoylamino)pentanoate [UBO-QIC]", "values": [{"measurement": "Inhibition of Ca2+ responses to CiOX stimulation with orexin-A and -B", "setting": "CiOX [4]", "result": "nearly fully inhibited"}]}
{"compound": "human orexin-A (peptide)", "values": [{"measurement": "EC50 of the Ca2+ elevation in CiOX-eGFP-expressing Flp-In T-REx 293 cells (CiOX-specific response, wild-type response subtracted)", "setting": "[8]", "result": 225, "unit": "nM"}]}
{"compound": "orexin-A15–33: The 19-amino acid-long C-terminal fragment of orexin-A (RLYELLHGAGNHAAGILTL; ends and bridges not checked)", "values": [{"measurement": "EC50 of Ca2+ elevation", "setting": "CiOX [3]; doxycycline 100 ng/mL 24 h, 37 °C, mean ± S.E.M., N = 3", "result": "no saturation was reached"}, {"measurement": "Ca2+ elevation in wild-type cells", "setting": "[2]", "result": "weakly elevated Ca^2+"}]}
